In patent US5300629A, “Bactericidal and/or bacteriostatic peptides isolated from hemolymph of honeybees” (Plant Genetic Systems, N.V., priority 1987, dated 1994) one finds minimal inhibitory concentration data, which are given here for one compound.

In brackets after ≈: the same amount, converted by molar mass. Where a SMILES comes first, the peptide text is derived from it.

This assay deals with Corynebacterium insidiosum NCPPB 1109. Description: Minimal inhibitory concentration in liquid culture. The format is cell-based. The conditions noted are these: 200 μl rich medium, 10^4 log-phase bacteria. The procedure:
In addition the exact concentration was determined precisely by amino-acid analysis and an equal sample of natural Bee 6b was prepared, allowing to compare the bactericidal activity of both natural and synthetic apidaecins by means of growth inhibition assays in liquid cultures (see mat & Meth.). The minimal inhibitory concentrations (μg/ml) were determined in liquid culture : 200 μl of a rich medium (trypticase soy broth or nutrient broth) was inoculated with 10^4 log-phase bacteria. Peptide concentrations ranged between 0 and 200 μg/ml. The values express μg/ml; when no inhibition was noticed the maximal values are given (+200 μg/ml or +50 μg/ml). All peptides were chemically synthesized, except for bee 6b which is purified from bee lymph.

As to `CC[C@H](C)[C@H](NC(=O)[C@H](Cc1ccc(O)cc1)NC(=O)[C@@H](NC(=O)[C@@H]1CCCN1C(=O)[C@H](CCCNC(=N)N)NC(=O)[C@H](CC(N)=O)NC(=O)[C@H](CC(N)=O)NC(=O)CN)C(C)C)C(=O)N[C@@H](CCC(N)=O)C(=O)N1CCC[C@H]1C(=O)N[C@@H](CCCNC(=N)N)C(=O)N1CCC[C@H]1C(=O)N1CCC[C@H]1C(=O)N[C@@H](Cc1c[nH]cn1)C(=O)N1CCC[C@H]1C(=O)N[C@@H](CCCNC(=N)N)C(=O)N[C@@H](CC(C)C)C(=O)O` [Apid PT-1] (H-GNNRPVYIQPRPPHPRL-OH), the minimal inhibitory concentration turned out to be 50 µg/mL (≈ 24.9 µM).
